Measured values from patent publication US20240182460A1, “ALLOSTERIC CHROMENONE INHIBITORS OF PHOSPHOINOSITIDE 3-KINASE (PI3K) FOR THE TREATMENT OF DISEASE” (PETRA PHARMA CORPORATION, priority 2022, published 2024).
Where two headings read alike, the source gives them in different places.

Experiment: Metabolic stability and intrinsic clearance in human liver microsomes (MICS)
Assay type: in vitro ADME
Conditions: pH 7.4
Method in brief: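 Test compound (1 μM final) incubated at 37° C with liver microsomes (0.5 mg/mL protein) in 100 mM phosphate buffer pH 7.4, with 1 mM NADPH or without cofactor; sampled at 0.5–60 min, quenched with cold acetonitrile. Parent remaining quantified by LC-MS/MS; t1/2 from ln-% remaining slope converted to CLint (μL/min/mg protein).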

Compound | microsomal CLint at 1 μM (human, microsomes) [µL/min/mg] | microsomal CLint at 1 μM (human liver microsomes 0.5 mg/mL, 1 μM compound, read-out: intrinsic clearance in human MICS) [µL/min/mg]
Cc1cc([C@@H](C)Oc2ccc(Cl)nc2-c2noc(=O)[nH]2)c2oc(-c3ccc4c(c3)OC(F)(F)O4)c(C)c(=O)c2c1 [Example 46A, 3-[6-Chloro-3-[(1R)-1-[2-(2,2-difluoro-1,3-benzodioxol-5-yl)-3,6-dimethyl-4-oxo-chromen-8-yl]ethoxy]-2-pyridyl]-4H-1,2,4-oxadiazol-5-one] | < 50 | –
Cc1cc([C@@H](C)Oc2ccc(Cl)nc2NS(C)(=O)=O)c2oc(-c3cnn(C)c3)c(C)c(=O)c2c1 [Example 149A, N-[6-Chloro-3-[(1R)-1-[3,6-dimethyl-2-(1-methylpyrazol-4-yl)-4-oxo-chromen-8-yl]ethoxy]-2-pyridyl]methanesulfonamide] | – | < 50

Further lines, with some results ahead:

microsomal CLint at 1 μM (human, microsomes) [µL/min/mg] | Compound | microsomal CLint at 1 μM (human liver microsomes 0.5 mg/mL, 1 μM compound, read-out: intrinsic clearance in human MICS) [µL/min/mg]
< 50 | CC(=O)Nc1ccc(-c2oc3c([C@@H](C)Oc4ccc(Cl)nc4C(N)=O)cc(C)cc3c(=O)c2C)cc1 [Example 58C, 3-[(1R)-1-[2-(4-Acetamidophenyl)-3,6-dimethyl-4-oxo-chromen-8-yl]ethoxy]-6-chloro-pyridine-2-carboxamide] | –
< 50 | Cc1cc([C@@H](C)Oc2ccc(Br)nc2C(N)=O)c2oc(-c3ccc4nn(C)cc4c3)c(C)c(=O)c2c1 [Example 81C, 6-Bromo-3-[(1R)-1-[3,6-dimethyl-2-(2-methylindazol-5-yl)-4-oxo-chromen-8-yl]ethoxy]pyridine-2-carboxamide] | –
< 50 | Cc1cc([C@@H](C)Oc2ccc(Cl)nc2C(N)=O)c2oc(-c3cc(F)c4nn(C)cc4c3)c(C)c(=O)c2c1 [Example 17B, 6-Chloro-3-[(1R)-1-[2-(7-fluoro-2-methyl-indazol-5-yl)-3,6-dimethyl-4-oxo-chromen-8-yl]ethoxy]pyridine-2-carboxamide] | –
